Results on one molecule are retold here after paper PMC6844396, “Design, synthesis and biological evaluation of novel 1H-1,2,4-triazole, benzothiazole and indazole-based derivatives as potent FGFR1 inhibitors viafragment-based virtual screening” (Journal of Enzyme Inhibition and Medicinal Chemistry, 2019).

One data set concerns the target RET (Homo sapiens, UniProt P07949). The data set can be described thus: ELISA kinase assay, RET. The class given is biochemical. The note with it: kinase selectivity panel. The protocol:
(§1) The kinase profiling of 9 u was conducted using Elisa kinase assay and the Eurofins Kinase Profiler Selectivity Testing Service.
(§2) Elisa kinase assay. The effects of the indicated compounds on the activities of receptor tyrosine kinases were determined using enzyme-linked immunosorbent assays (ELISAs) with purified recombinant proteins. Briefly, 20 μg/mL poly (Glu,Tyr)4:1 (Sigma, St Louis, MO, USA) was pre-coated in 96-well plates as a substrate. A 50 μL aliquot of 10 μmol/L ATP solution diluted in kinase reaction buffer (50 mmol/L HEPES [pH 7.4], 50 mmol/L MgCl2, 0.5 mmol/L MnCl2, 0.2 mmol/L Na3VO4, and 1 mmol/L DTT) was added to each well; 1 μL of different compounds with indicated concentration diluted in 1% DMSO (v/v) (Sigma, St Louis, MO, USA) were then added to each reaction well. DMSO (1%, v/v) was used as the negative control. The kinase reaction was initiated by the addition of purified tyrosine kinase proteins (FGFR1, FGFR2, FGFR3, FGFR4, ALK, Bcr-Abl, EPH-A2, Flt-1, RET, c-Src, IGF1R, c-Met, EGFR, ErbB2) diluted in 49 μL of kinase reaction buffer solution. […] The reaction was terminated by the addition of 50 μL of 2 mol/l H2SO4 as the colour changed, and the plate was analysed using a multi-well spectrophotometer (SpectraMAX 190, Molecular Devices, Sunnyvale, CA, USA) at 490 nm. […] The IC50 values were calculated from the inhibition curves in two separate experiments.
(In general: An ELISA detects its analyte on a solid surface through an enzyme-linked reagent.)

The next data set concerns the target Flt-1 (Homo sapiens, UniProt P17948). As to the kind of experiment: ELISA kinase assay, Flt-1. The data set is classed as biochemical. The following applies: kinase selectivity panel. The protocol:
as §1, §2

In a further data set the target is Bcr-Abl (Homo sapiens, UniProt P00519). As to the kind of experiment: ELISA kinase assay, Bcr-Abl. The data set is classed as biochemical. The following applies: kinase selectivity panel. The protocol: as §1, §2
The target of the next data set is IGF1R (Homo sapiens, UniProt P08069). The data set can be described thus: ELISA kinase assay, IGF1R. The data set is classed as biochemical. The note with it: kinase selectivity panel. The protocol:
as §1, §2

For another data set, the target named is FGFR4 (Homo sapiens, UniProt P22455). As to the kind of experiment: ELISA kinase assay, FGFR4. The note with it: kinase selectivity panel. The data set is classed as biochemical. The protocol: as §1, §2
A further data set deals with ALK (Homo sapiens, UniProt Q9UM73). The data set can be described thus: ELISA kinase assay, ALK. The data set is classed as biochemical. The following applies: kinase selectivity panel. The method, then:
as §1, §2

The next data set has as its target FGFR3 (Homo sapiens, UniProt P22607). As to the kind of experiment: ELISA kinase assay, FGFR3. The class given is biochemical. The following applies: kinase selectivity panel. The method, then:
as §1, §2

The target in another data set is c-Src (Homo sapiens, UniProt P12931). The data set can be described thus: ELISA kinase assay, c-Src. The class given is biochemical. The note with it: kinase selectivity panel. The protocol: as §1, §2
Another data set deals with FGFR2 (Homo sapiens, UniProt P21802). The data set can be described thus: ELISA kinase assay, FGFR2. The class given is biochemical. The note with it: kinase selectivity panel. The protocol:
DMSO (1%, v/v) was used as the negative control. […] Anti-phosphotyrosine (PY99) antibody (100 μL; 1:500, diluted in 5 mg/mL BSA T-PBS) was then added. […] The IC50 values were calculated from the inhibition curves in two separate experiments.

Another data set deals with ErbB2 (Homo sapiens, UniProt P04626). As to the kind of experiment: ELISA kinase assay, ErbB2. The data set is classed as biochemical. The note with it: kinase selectivity panel. The method, then:
as §1, §2

The target in the next data set is EPH-A2 (Homo sapiens, UniProt P29317). The data set can be described thus: ELISA kinase assay, EPH-A2. The data set is classed as biochemical. The note with it: kinase selectivity panel. The method, then:
as §1, §2

A further data set addresses FGFR1 (Homo sapiens, UniProt P11362). As to the kind of experiment: ELISA kinase assay, FGFR1. The class given is biochemical. The protocol: Elisa kinase assay. The effects of the indicated compounds on the activities of receptor tyrosine kinases were determined using enzyme-linked immunosorbent assays (ELISAs) with purified recombinant proteins. Briefly, 20 μg/mL poly (Glu,Tyr)4:1 (Sigma, St Louis, MO, USA) was pre-coated in 96-well plates as a substrate. A 50 μL aliquot of 10 μmol/L ATP solution diluted in kinase reaction buffer (50 mmol/L HEPES [pH 7.4], 50 mmol/L MgCl2, 0.5 mmol/L MnCl2, 0.2 mmol/L Na3VO4, and 1 mmol/L DTT) was added to each well; 1 μL of different compounds with indicated concentration diluted in 1% DMSO (v/v) (Sigma, St Louis, MO, USA) were then added to each reaction well. DMSO (1%, v/v) was used as the negative control. The kinase reaction was initiated by the addition of purified tyrosine kinase proteins (FGFR1, FGFR2, FGFR3, FGFR4, ALK, Bcr-Abl, EPH-A2, Flt-1, RET, c-Src, IGF1R, c-Met, EGFR, ErbB2) diluted in 49 μL of kinase reaction buffer solution. After incubation for 60 min at 37 °C, the plate was washed three times with phosphate-buffered saline (PBS) containing 0.1% Tween 20 (T-PBS). Anti-phosphotyrosine (PY99) antibody (100 μL; 1:500, diluted in 5 mg/mL BSA T-PBS) was then added. After a 30 min incubation at 37 °C, the plate was washed three times, and 100 μL horseradish peroxidase-conjugated goat anti-mouse IgG (1:2000, diluted in 5 mg/mL BSA T-PBS) was added. The plate was then incubated at 37 °C for 30 min and washed 3 times. A 100 μL aliquot of a solution containing 0.03% H2O2 and 2 mg/mL o-phenylenediamine in 0.1 mol/l citrate buffer (pH 5.5) was added. The reaction was terminated by the addition of 50 μL of 2 mol/l H2SO4 as the colour changed, and the plate was analysed using a multi-well spectrophotometer (SpectraMAX 190, Molecular Devices, Sunnyvale, CA, USA) at 490 nm. The inhibition rate (%) was calculated using the following equation: [1-(A490/A490 control)] × 100%. The IC50 values were calculated from the inhibition curves in two separate experiments.

A further data set concerns SNU-16 cell. As to the kind of experiment: Cell proliferation assay (CCK-8 or MTT), SNU-16. The class given is cell-based, Human. The note with it: Homo sapiens; Table 3; SNU-16 is FGFR2-amplified cell type; 72 h. The method, then:
Human gastric cancer cell line SNU-16 was purchased from American Type Culture Collection (ATCC, Manssas, VA, USA). All the cell lines were routinely maintained in complete medium according to the suppliers’ recommendations.
Cells were seeded in 96-well tissue culture plates. On the day when seeding, the cells were exposed to various concentrations of compounds and further cultured for 72 h at 37 °C. Finally, cell proliferation was determined using Cell Counting Kit (CCK-8) or the thiazolyl blue tetrazolium bromide (MTT, from Sigma-Aldrich, St. Louis, MO, USA) assay. The IC50 values were calculated by concentration–response curve fitting using a SoftMax pro-based four-parameter method.

For a further data set, the target named is c-Met (Homo sapiens, UniProt P08581). The data set can be described thus: ELISA kinase assay, c-Met. The class given is biochemical. The note with it: kinase selectivity panel. The protocol:
as §1, §2

In another data set the target is EGFR (Homo sapiens, UniProt P00533). The data set can be described thus: ELISA kinase assay, EGFR. The data set is classed as biochemical. The note with it: kinase selectivity panel. The method, then:
as §1, §2

Sequence of FGFR1 (P11362 22-822): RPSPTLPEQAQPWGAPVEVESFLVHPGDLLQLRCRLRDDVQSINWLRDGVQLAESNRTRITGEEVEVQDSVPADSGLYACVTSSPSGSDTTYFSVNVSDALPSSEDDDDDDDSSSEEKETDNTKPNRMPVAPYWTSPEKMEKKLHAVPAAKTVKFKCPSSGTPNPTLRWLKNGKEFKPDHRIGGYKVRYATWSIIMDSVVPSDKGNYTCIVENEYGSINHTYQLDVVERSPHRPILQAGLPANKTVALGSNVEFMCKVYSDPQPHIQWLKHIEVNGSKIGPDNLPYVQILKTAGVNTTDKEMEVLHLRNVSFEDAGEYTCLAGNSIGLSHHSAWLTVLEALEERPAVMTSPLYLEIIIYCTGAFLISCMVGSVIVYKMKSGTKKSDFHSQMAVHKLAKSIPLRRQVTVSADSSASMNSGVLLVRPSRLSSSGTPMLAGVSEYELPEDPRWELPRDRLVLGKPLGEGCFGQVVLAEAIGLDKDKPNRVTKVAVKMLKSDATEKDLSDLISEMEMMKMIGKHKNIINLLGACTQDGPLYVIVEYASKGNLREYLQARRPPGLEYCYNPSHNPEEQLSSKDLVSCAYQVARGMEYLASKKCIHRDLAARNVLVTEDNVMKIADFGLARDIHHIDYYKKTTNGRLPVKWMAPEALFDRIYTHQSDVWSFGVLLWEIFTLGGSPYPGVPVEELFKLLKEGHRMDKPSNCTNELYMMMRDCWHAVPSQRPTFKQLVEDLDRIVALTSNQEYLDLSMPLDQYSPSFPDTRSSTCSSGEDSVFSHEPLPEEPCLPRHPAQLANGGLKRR
Sequence of FGFR4 (P22455 22-802): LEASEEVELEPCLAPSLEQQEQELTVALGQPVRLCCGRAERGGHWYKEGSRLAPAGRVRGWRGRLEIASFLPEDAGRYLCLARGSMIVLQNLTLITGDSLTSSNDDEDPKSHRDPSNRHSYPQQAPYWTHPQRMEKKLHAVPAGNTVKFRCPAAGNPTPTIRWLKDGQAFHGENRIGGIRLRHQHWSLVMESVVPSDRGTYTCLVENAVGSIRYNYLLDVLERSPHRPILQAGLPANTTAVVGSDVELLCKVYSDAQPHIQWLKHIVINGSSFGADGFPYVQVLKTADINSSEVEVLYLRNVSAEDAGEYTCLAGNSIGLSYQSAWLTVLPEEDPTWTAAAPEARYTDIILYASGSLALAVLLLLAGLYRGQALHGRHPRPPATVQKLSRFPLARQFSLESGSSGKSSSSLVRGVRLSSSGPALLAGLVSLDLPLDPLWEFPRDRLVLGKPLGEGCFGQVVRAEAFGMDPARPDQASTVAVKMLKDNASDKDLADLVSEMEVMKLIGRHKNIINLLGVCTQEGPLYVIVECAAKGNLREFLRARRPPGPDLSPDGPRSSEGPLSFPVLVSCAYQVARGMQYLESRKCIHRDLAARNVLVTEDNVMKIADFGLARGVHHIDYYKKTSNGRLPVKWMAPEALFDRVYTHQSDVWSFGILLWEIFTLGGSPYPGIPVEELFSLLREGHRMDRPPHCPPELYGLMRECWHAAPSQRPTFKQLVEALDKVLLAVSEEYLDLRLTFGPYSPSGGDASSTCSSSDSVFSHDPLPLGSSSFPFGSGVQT
Sequence of ErbB2 (P04626 23-1255, species assumed): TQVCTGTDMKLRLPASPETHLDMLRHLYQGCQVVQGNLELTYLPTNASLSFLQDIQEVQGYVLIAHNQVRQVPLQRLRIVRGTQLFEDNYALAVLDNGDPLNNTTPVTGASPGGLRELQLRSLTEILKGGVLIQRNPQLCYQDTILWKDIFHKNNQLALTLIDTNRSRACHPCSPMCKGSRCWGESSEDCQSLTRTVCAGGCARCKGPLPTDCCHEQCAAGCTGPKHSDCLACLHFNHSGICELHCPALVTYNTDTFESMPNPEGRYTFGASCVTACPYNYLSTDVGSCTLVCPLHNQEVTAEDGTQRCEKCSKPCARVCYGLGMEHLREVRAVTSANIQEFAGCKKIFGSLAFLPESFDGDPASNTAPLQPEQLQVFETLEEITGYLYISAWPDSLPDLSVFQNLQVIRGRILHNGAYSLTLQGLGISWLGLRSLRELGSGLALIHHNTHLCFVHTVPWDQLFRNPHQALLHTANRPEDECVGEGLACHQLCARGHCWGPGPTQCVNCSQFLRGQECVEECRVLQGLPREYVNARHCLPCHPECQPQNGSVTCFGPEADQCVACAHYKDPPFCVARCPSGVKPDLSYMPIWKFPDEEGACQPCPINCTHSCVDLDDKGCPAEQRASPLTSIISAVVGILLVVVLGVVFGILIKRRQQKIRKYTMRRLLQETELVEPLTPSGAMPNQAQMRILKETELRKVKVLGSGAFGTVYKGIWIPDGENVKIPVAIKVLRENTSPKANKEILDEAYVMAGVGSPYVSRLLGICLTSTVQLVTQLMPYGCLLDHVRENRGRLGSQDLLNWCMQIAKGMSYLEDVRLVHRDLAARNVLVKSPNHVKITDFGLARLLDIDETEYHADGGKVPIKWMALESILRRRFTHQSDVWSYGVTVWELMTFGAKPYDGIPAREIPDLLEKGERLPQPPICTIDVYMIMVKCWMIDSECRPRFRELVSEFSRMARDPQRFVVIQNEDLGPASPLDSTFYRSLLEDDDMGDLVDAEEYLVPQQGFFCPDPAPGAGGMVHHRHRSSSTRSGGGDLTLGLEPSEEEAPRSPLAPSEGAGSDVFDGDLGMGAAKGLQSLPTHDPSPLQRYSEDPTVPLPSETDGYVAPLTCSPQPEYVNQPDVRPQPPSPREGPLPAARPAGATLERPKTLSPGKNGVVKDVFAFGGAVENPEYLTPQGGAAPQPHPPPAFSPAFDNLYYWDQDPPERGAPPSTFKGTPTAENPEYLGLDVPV
Sequence of Flt-1 (P17948 27-1338, species assumed): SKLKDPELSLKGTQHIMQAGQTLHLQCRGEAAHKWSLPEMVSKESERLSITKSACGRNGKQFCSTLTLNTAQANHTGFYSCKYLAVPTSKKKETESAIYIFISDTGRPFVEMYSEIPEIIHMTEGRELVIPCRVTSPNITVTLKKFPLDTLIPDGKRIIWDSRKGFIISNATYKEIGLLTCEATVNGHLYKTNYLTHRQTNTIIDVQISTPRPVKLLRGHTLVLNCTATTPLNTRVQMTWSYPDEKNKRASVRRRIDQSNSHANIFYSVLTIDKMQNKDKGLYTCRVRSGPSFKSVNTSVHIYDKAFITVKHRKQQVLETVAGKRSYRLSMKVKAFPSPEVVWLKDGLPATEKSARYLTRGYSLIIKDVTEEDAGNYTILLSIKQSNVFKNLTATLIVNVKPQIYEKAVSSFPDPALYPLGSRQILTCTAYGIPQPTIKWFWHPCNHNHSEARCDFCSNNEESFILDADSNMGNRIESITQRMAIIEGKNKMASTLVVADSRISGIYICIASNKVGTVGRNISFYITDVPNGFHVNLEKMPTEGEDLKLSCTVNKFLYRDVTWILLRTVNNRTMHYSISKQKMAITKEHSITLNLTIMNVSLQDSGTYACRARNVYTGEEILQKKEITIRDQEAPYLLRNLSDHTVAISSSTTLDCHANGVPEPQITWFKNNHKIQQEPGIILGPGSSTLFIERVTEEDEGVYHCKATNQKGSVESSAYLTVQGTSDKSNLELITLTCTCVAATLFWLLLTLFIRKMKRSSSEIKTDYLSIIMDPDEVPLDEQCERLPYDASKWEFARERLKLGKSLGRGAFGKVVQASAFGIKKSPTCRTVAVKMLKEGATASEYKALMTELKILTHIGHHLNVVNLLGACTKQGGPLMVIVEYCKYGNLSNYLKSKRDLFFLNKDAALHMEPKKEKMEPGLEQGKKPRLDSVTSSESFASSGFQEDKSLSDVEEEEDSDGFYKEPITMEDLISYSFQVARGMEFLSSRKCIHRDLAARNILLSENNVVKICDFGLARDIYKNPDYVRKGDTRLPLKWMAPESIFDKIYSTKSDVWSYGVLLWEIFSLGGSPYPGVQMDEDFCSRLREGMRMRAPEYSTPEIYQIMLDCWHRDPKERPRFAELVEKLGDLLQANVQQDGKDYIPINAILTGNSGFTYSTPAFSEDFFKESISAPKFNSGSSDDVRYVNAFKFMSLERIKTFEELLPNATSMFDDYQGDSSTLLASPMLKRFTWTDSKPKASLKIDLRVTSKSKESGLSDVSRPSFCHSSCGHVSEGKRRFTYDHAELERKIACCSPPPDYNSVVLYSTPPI
Sequence of EPH-A2 (P29317 24-976, species assumed): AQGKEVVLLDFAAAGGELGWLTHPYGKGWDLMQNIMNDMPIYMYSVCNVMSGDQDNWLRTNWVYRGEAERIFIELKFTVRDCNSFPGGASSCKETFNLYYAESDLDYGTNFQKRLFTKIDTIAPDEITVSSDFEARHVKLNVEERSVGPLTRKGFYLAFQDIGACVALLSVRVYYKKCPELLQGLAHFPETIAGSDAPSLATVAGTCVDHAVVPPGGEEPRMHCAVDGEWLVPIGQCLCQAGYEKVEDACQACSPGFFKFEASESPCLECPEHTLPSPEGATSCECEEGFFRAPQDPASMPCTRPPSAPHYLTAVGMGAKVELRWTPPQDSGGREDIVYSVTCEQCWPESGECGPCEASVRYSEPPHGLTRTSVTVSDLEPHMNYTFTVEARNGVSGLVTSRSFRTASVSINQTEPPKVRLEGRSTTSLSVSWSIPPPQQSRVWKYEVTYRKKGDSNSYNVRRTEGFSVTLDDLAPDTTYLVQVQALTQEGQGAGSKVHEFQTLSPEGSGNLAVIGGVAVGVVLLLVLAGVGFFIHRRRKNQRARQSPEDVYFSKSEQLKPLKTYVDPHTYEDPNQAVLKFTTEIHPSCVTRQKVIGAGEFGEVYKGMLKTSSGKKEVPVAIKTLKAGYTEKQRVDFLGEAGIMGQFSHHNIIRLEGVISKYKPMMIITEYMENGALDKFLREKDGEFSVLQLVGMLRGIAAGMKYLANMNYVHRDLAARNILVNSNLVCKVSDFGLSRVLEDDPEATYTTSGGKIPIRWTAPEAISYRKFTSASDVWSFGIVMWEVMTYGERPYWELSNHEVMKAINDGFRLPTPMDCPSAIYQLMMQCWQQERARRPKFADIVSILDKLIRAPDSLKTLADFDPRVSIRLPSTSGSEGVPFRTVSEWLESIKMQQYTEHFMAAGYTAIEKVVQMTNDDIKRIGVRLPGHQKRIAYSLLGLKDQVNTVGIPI

For the molecule `COc1cc(F)cc(-c2ccc3c(NC(=O)c4ccc(N5CCC(N(C)C)CC5)cc4)n[nH]c3c2)c1` [9u, 4–(4-(dimethylamino)piperidin-1-yl)-N-(6–(3-fluoro-5-methoxyphenyl)-1H-indazol-3-yl)benzamide], the melting point fell in the range of 223.8 to 227.4 °C. For the same molecule, at RET, the 50% inhibitory concentration (IC50) was above 100 nM. In addition, the IC50 against Flt-1 was above 100 nM. This molecule also registered an IC50 against Bcr-Abl above 1000 nM. For the same molecule, the IC50 on IGF1R is above 1000 nM. The molecule also had a concentration for half-maximal inhibition (IC50) against FGFR4 above 1000 nM. In addition, the IC50 at ALK is above 1000 nM. On FGFR3, half-maximal inhibition (IC50) required 12.2 nM. In addition, the IC50 against c-Src was above 100 nM. This molecule also had an IC50 at FGFR2 of 5.2 nM. Moreover, the IC50 on ErbB2 was above 1000 nM. On EPH-A2, the IC50 was above 1000 nM. The same molecule showed an IC50 against FGFR1 (ELISA, average values from two separate experiments) of 3.3 nM. In addition, the “enhancement of FGFR1 inhibitory activity” value at FGFR1 (compared with 9o) came out at 1.5 fold. In addition, in the data set on SNU-16 cell, half-maximal inhibition (IC50) was put at 468 nM. The same molecule registered an IC50 on c-Met above 1000 nM. Further, at EGFR, the IC50 was above 1000 nM.

Broadly, the IC50 is the concentration at which inhibition is half-maximal. A lower IC50 goes with greater potency. Usually melting point stands for the temperature of the solid-liquid transition.
